The results in this text go back to ChEMBL document CHEMBL1201862, “PubChem BioAssay data set” (2004).

Some test systems named below: RXF 393; SK-MEL-28; SK-MEL-2; UACC-62; CCRF-CEM; SK-MEL-5; NCI-H460; NCI-H522; SN12C; MOLT-4; U-251; NCI-H226; SW-620; EKVX; OVCAR-5; HCC 2998; SNB-75; HOP-62; K562; OVCAR-4.
What all share (assay): inhibition of tumour cell growth, NCI panel, 48 h

Molecules are shown by their SMILES.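 Each compound was tested at five concentrations against cells in 96-well plates for 48 hours. GI50: concentration for 50% inhibition of growth.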 Calls of active or inactive are those of the source. Rule as the data show it: active = GI50 up to about 1.1 µM and inactive = higher.

Turning to `Cc1ccc(S(=O)(=O)NNC2Oc3cc4c(cc3C(c3ccccc3O)C2C)OCO4)cc1` (stereo unspecified), the GI50 in the experiment with RXF 393 is 4.22 µM (inactive); in the experiment with SK-MEL-28, 15.6 µM (inactive); with SK-MEL-2, 9.62 µM (inactive); in the experiment on UACC-62, 15.7 µM (inactive); in the experiment on CCRF-CEM it was 10.2 µM (inactive); in the experiment with SK-MEL-5 it was 14.5 µM (inactive). The GI50 was 12.1 µM (inactive) in the experiment with NCI-H460; 12.4 µM (inactive) in the experiment on NCI-H522; 15.3 µM (inactive) in the experiment with SN12C; 10.4 µM (inactive) in the experiment on MOLT-4; 10.3 µM (inactive) in the experiment with U-251; 12.4 µM (inactive) in the experiment with NCI-H226. Further, the GI50 with SW-620 was 13.7 µM (inactive); in the experiment on EKVX, 10.7 µM (inactive); in the experiment on OVCAR-5, 16.1 µM (inactive); in the experiment on HCC 2998 it was 16.9 µM (inactive); in the experiment on SNB-75 it was 10.9 µM (inactive); in the experiment on HOP-62 it was 15.1 µM (inactive). Besides, in the experiment on K562, the GI50 was 11.1 µM (inactive).
In the case of `Cn1c(=O)ccc2c(=O)c3ccccc3oc21`, the GI50 is 64.9 µM (inactive) in the experiment on RXF 393; > 100 µM (inactive) in the experiment on SK-MEL-28; > 100 µM (inactive) in the experiment with SK-MEL-2; > 100 µM (inactive) in the experiment with UACC-62; > 100 µM (inactive) with CCRF-CEM; > 100 µM (inactive) with SK-MEL-5. Besides, the GI50 in the experiment on NCI-H460, in the experiment with OVCAR-4, in the experiment with NCI-H522, in the experiment on SN12C, in the experiment on U-251 and in the experiment with NCI-H226 was > 100 µM (inactive) throughout. Also, the GI50 with SW-620 was > 100 µM (inactive); in the experiment on EKVX, > 100 µM (inactive); in the experiment on OVCAR-5, > 100 µM (inactive); in the experiment with HCC 2998 it was > 100 µM (inactive); in the experiment with SNB-75, 0.029 µM (active); in the experiment on HOP-62, > 100 µM (inactive). Further, the GI50 in the experiment on K562 was > 100 µM (inactive).
With `O=C(/C=C/CC(O)(c1ccccc1)c1ccccc1)Nc1ccccc1Cl`, the GI50 with SK-MEL-28, with SK-MEL-2, in the experiment with UACC-62, in the experiment on CCRF-CEM, with SK-MEL-5 and with NCI-H460 was > 100 µM (inactive) each time. In addition, the GI50 in the experiment with OVCAR-4, in the experiment on NCI-H522, with SN12C, with MOLT-4, with U-251 and in the experiment with NCI-H226 was > 100 µM (inactive) throughout. Also, the GI50 was > 100 µM (inactive) in the experiment on SW-620; > 100 µM (inactive) in the experiment with EKVX; > 100 µM (inactive) in the experiment on OVCAR-5; > 100 µM (inactive) in the experiment on HCC 2998; 28.1 µM (inactive) in the experiment on SNB-75; > 100 µM (inactive) in the experiment on HOP-62. Also, the GI50 with K562 was > 100 µM (inactive).
Take `NC(CCOCCP(=O)(O)CCC1C=CC=CC1)C(=O)O` (stereo unspecified): the GI50 with RXF 393 is > 100 µM (inactive); with SK-MEL-28, > 100 µM (inactive); with SK-MEL-2, > 100 µM (inactive); in the experiment with UACC-62 it was 43.8 µM (inactive); in the experiment on CCRF-CEM, > 100 µM (inactive); with SK-MEL-5 it was > 100 µM (inactive). In addition, the GI50 with NCI-H460, in the experiment on OVCAR-4, in the experiment on NCI-H522, with SN12C, with MOLT-4 and in the experiment on U-251 was > 100 µM (inactive) throughout. The GI50 is > 100 µM (inactive) in the experiment with SW-620; > 100 µM (inactive) in the experiment on EKVX; > 100 µM (inactive) with OVCAR-5; > 100 µM (inactive) in the experiment with HCC 2998; 64 µM (inactive) in the experiment with SNB-75; > 100 µM (inactive) in the experiment on K562.
For the molecule `Cc1c2[nH]c3ccc(Br)cc3c2c(C)c2nccc(O)c12`, the GI50 with SK-MEL-28 was 16.9 µM (inactive); in the experiment on SK-MEL-2, 17.5 µM (inactive); with CCRF-CEM, 7.35 µM (inactive); in the experiment on SK-MEL-5 it was 22.3 µM (inactive); in the experiment with NCI-H460, 6.9 µM (inactive); in the experiment on OVCAR-4 it was 16.3 µM (inactive). The GI50 was 12 µM (inactive) with NCI-H522; 13.2 µM (inactive) in the experiment with SN12C; 5.57 µM (inactive) with MOLT-4; 16.6 µM (inactive) in the experiment on NCI-H226; 11.7 µM (inactive) with SW-620; 16.4 µM (inactive) in the experiment on EKVX. Besides, the GI50 is 14.5 µM (inactive) in the experiment on OVCAR-5; 16.2 µM (inactive) in the experiment with HCC 2998; 25.8 µM (inactive) in the experiment on SNB-75; 13.1 µM (inactive) in the experiment with HOP-62; 17 µM (inactive) in the experiment on K562.
On to `C=C(CCCO)[C@@H]1CC[C@@](C)(O)[C@H]1C`, for which the GI50 in the experiment on RXF 393, with SK-MEL-28, in the experiment on SK-MEL-2, in the experiment on UACC-62, in the experiment with SK-MEL-5 and with NCI-H460 was > 100 µM (inactive) each time. Also, the GI50 in the experiment on OVCAR-4, in the experiment with NCI-H522, in the experiment with SN12C, in the experiment with MOLT-4, in the experiment on U-251 and in the experiment on NCI-H226 was > 100 µM (inactive) throughout. Moreover, the GI50 with SW-620 was > 100 µM (inactive); in the experiment on EKVX, > 100 µM (inactive); in the experiment on OVCAR-5, > 100 µM (inactive); in the experiment with HCC 2998 it was > 100 µM (inactive); with SNB-75, 33.1 µM (inactive); in the experiment on K562 it was > 100 µM (inactive).
`CN(c1ccccc1)c1c(-c2ccccc2)c(=O)oc2c1ccc1occc12`: the GI50 was > 92.3 µM (inactive) in the experiment on RXF 393; > 100 µM (inactive) in the experiment with SK-MEL-28; > 100 µM (inactive) with SK-MEL-2; > 100 µM (inactive) in the experiment on UACC-62; > 100 µM (inactive) with CCRF-CEM; > 100 µM (inactive) in the experiment with SK-MEL-5. The GI50 in the experiment on NCI-H460 was > 76.7 µM (inactive); in the experiment on OVCAR-4 it was > 81.8 µM (inactive); in the experiment on NCI-H522, > 100 µM (inactive); in the experiment on SN12C it was > 100 µM (inactive); with MOLT-4, 22.2 µM (inactive); in the experiment with U-251, > 100 µM (inactive). In addition, the GI50 with NCI-H226 was 0.348 µM (active); in the experiment with SW-620, > 100 µM (inactive); with EKVX, > 100 µM (inactive); with HCC 2998 it was > 100 µM (inactive); in the experiment with SNB-75 it was > 100 µM (inactive); in the experiment with HOP-62, > 100 µM (inactive). Also, in the experiment on K562, the GI50 was > 100 µM (inactive).
As to `COc1cc(/C=C2\C(=O)N(C(=O)Cc3ccccc3)N=C2C)cc(OC)c1OC`, the GI50 with SK-MEL-28, with SK-MEL-2, with CCRF-CEM, in the experiment on SK-MEL-5, in the experiment on NCI-H460 and in the experiment on OVCAR-4 was > 100 µM (inactive) throughout. The GI50 in the experiment with NCI-H522, in the experiment on SN12C, with MOLT-4, with NCI-H226, in the experiment on SW-620 and with EKVX was > 100 µM (inactive) each time. Moreover, the GI50 with OVCAR-5, in the experiment with HCC 2998, in the experiment with SNB-75, in the experiment with HOP-62 and in the experiment on K562 was > 100 µM (inactive) throughout.
As to `C=C1C(=O)OC2/C=C(\C)CC/C=C(/C)CC(OC(=O)/C(=C/CO)CO)C12` (stereo unspecified), the GI50 was 11 µM (inactive) with RXF 393; 28.4 µM (inactive) in the experiment with SK-MEL-28; 25 µM (inactive) in the experiment on SK-MEL-2; 16.8 µM (inactive) with UACC-62; 6.43 µM (inactive) in the experiment on CCRF-CEM; 17.3 µM (inactive) in the experiment on SK-MEL-5. Besides, the GI50 in the experiment with NCI-H460 is 64.3 µM (inactive); in the experiment with OVCAR-4, 33.6 µM (inactive); in the experiment with NCI-H522, 17.1 µM (inactive); in the experiment with MOLT-4, 25.6 µM (inactive); in the experiment on U-251, 20.9 µM (inactive); with SW-620 it was 21.4 µM (inactive). The GI50 was > 10 µM (inactive) in the experiment with EKVX; 18.7 µM (inactive) in the experiment with OVCAR-5; 23 µM (inactive) with HCC 2998; 45.4 µM (inactive) in the experiment with SNB-75; > 100 µM (inactive) in the experiment with HOP-62; 30 µM (inactive) in the experiment with K562.
For `CC(=O)O[C@H]1[C@@H](OC(C)=O)C(C)(C)/C=C/[C@H](C)C(=O)[C@@]2(OC(C)=O)C[C@@](C)(OC(C)=O)[C@H](OC(C)=O)[C@@H]2[C@H]2OC(=O)CC[C@@]2(OC(=O)c2ccccc2)[C@@H]1OCC(C)C`, the GI50 in the experiment with RXF 393 was 46.7 µM (inactive); in the experiment on SK-MEL-2, > 100 µM (inactive); with UACC-62, 46.5 µM (inactive); with CCRF-CEM, 11.2 µM (inactive); with SK-MEL-5, 33.5 µM (inactive); in the experiment on NCI-H460, 4.1 µM (inactive). Besides, the GI50 in the experiment on OVCAR-4 is 62.7 µM (inactive); in the experiment with NCI-H522, 32.4 µM (inactive); in the experiment with SN12C, > 100 µM (inactive); with MOLT-4 it was 4.76 µM (inactive); in the experiment with U-251, 80.4 µM (inactive); with NCI-H226, 92 µM (inactive). Moreover, the GI50 in the experiment with SW-620 was 10.7 µM (inactive); in the experiment on EKVX it was 87.9 µM (inactive); in the experiment with OVCAR-5, > 100 µM (inactive); in the experiment on HCC 2998, 19.5 µM (inactive); with SNB-75 it was 17.8 µM (inactive); with HOP-62 it was 6.04 µM (inactive). Besides, in the experiment on K562, the GI50 was 4.51 µM (inactive).
Turning to `Nc1c(C(=O)Nc2ccc(C3=NCCN3)cc2)cccc1C(=O)Nc1ccc(C2=NCCN2)cc1`, the GI50 with RXF 393, with SK-MEL-28, in the experiment with SK-MEL-2, with UACC-62, with CCRF-CEM and in the experiment with SK-MEL-5 was > 100 µM (inactive) throughout. Moreover, the GI50 in the experiment with NCI-H460 is > 100 µM (inactive); in the experiment on OVCAR-4, > 100 µM (inactive); in the experiment on NCI-H522 it was > 65.2 µM (inactive); in the experiment on SN12C it was > 88.1 µM (inactive); in the experiment on MOLT-4, > 100 µM (inactive); in the experiment on U-251, 53.5 µM (inactive). Also, the GI50 in the experiment with NCI-H226 is > 100 µM (inactive); in the experiment with SW-620 it was > 100 µM (inactive); in the experiment with OVCAR-5, > 100 µM (inactive); with HCC 2998 it was > 71.6 µM (inactive); in the experiment on SNB-75, > 64.9 µM (inactive); with K562 it was > 100 µM (inactive).
